In patent US11731944B2, “SARS-CoV-2 inhibitors for treating coronavirus infections” (priority 2021, dated 2023):
pIC50: −log10 of the molar value. Where two headings read alike, the source gives them in different places.

Molecular target: SARS-CoV-2 MPRO (Severe acute respiratory syndrome coronavirus 2 (2019-nCoV) (SARS-CoV-2), UniProt P0DTD1)
Test: SARS-CoV-2 Mpro enzymatic assay (FRET substrate cleavage)
Assay type: biochemical
Settings: 30 min pre-incubation at RT, 60 min at 30° C., 10 doses from 25 μM
[1] = M pro IC50, C-His6-tagged SARS-CoV-2 MPRO 25 nM
[2] = C-His6-tagged SARS-CoV-2 MPRO 25 nM, read-out: M pro IC50

With `C[C@](C(=O)NC1CCC(F)(F)CC1)(c1cncc(F)c1)N(C(=O)[C@H](F)Cl)c1ccc(OC(F)(F)F)cc1` [Example 11a] the pIC50 [1] was > 7.00.
`C[C@@](C(=O)NC1CCC(F)(F)CC1)(c1cncc(F)c1)N(C(=O)[C@H](F)Cl)c1ccc(OC(F)(F)F)cc1` [Example 11b] gave a pIC50 [1] of 5.00 to 6.00.
With `Cn1ccc([C@](C)(C(=O)NC2CCC(F)(F)CC2)N(C(=O)[C@H](F)Cl)c2ccc(OC(F)(F)F)cc2)cc1=O` [Example 13a] the pIC50 [2] was < 5.00.
For `C[C@](C(=O)NC1CCOCC1)(c1cncc(F)c1)N(C(=O)[C@H](F)Cl)c1ccc(OC(F)(F)F)cc1` [Example 14a], the pIC50 [2] was > 7.00.
With `C[C@@](C(=O)NC1CCOCC1)(c1cncc(F)c1)N(C(=O)[C@H](F)Cl)c1ccc(OC(F)(F)F)cc1` [Example 14b] the pIC50 [2] was < 5.00.
`C[C@](C(=O)NC1CC(F)(F)C1)(c1cncnc1)N(C(=O)[C@H](F)Cl)c1ccc(OC(F)(F)F)cc1` [Example 18a] was tested, and the pIC50 [2] was > 7.00.
Compound `C[C@@](C(=O)NC1CC(F)(F)C1)(c1cncnc1)N(C(=O)[C@H](F)Cl)c1ccc(OC(F)(F)F)cc1` [Example 18b] has a pIC50 [2] of 5.00 to 6.00.
For `C[C@](C(=O)NC1CCC(F)(F)CC1)(c1cncnc1)N(C(=O)[C@H](F)Cl)c1ccc(S(F)(F)(F)(F)F)cc1` [Example 22a], the pIC50 [2] was > 7.00.
Work on `C[C@@](C(=O)NC1CCC(F)(F)CC1)(c1cncnc1)N(C(=O)[C@H](F)Cl)c1ccc(S(F)(F)(F)(F)F)cc1` [Example 22b] yielded a pIC50 [2] of 5.00 to 6.00.
With `C[C@](C(=O)NC1CCOCC1)(c1cncnc1)N(C(=O)[C@H](F)Cl)c1ccc(S(F)(F)(F)(F)F)cc1` [Example 23a] the pIC50 [2] was 5.00 to 6.00.
`C[C@@](C(=O)NC1CCOCC1)(c1cncnc1)N(C(=O)[C@H](F)Cl)c1ccc(S(F)(F)(F)(F)F)cc1` [Example 23b] was tested, and the pIC50 [2] was > 7.00.
In the case of `C[C@](C(=O)NC1CCC(F)(F)CC1)(c1cncnc1)N(C(=O)[C@H](F)Cl)c1ccc(OC(F)(F)F)cc1F` [Example 26a], the pIC50 [1] was 6.00 to 7.00.
For `C[C@@](C(=O)NC1CCC(F)(F)CC1)(c1cncnc1)N(C(=O)[C@H](F)Cl)c1ccc(OC(F)(F)F)cc1F` [Example 26b], the pIC50 [1] was 5.00 to 6.00.
`C[C@](C(=O)NC1CCOCC1)(c1cncnc1)N(C(=O)[C@H](F)Cl)c1ccc(OC(F)(F)F)cc1F` [Example 27a] showed a pIC50 [1] of 6.00 to 7.00.
In the case of `C[C@](C(=O)NC1CCC(F)(F)CC1)(c1cncnc1)N(C(=O)[C@H](F)Cl)c1ccc(C2(C(F)(F)F)CC2)cc1` [Example 28a], the pIC50 [2] was > 7.00.
In the case of `C[C@@](C(=O)NC1CCC(F)(F)CC1)(c1cncnc1)N(C(=O)[C@H](F)Cl)c1ccc(C2(C(F)(F)F)CC2)cc1` [Example 28b], the pIC50 [2] was < 5.00.
`C[C@](C(=O)NC1CCOCC1)(c1cncnc1)N(C(=O)[C@H](F)Cl)c1ccc(C2(C(F)(F)F)CC2)cc1` [Example 29a] gave a pIC50 [2] of 6.00 to 7.00.
With `C[C@@](C(=O)NC1CCOCC1)(c1cncnc1)N(C(=O)[C@H](F)Cl)c1ccc(C2(C(F)(F)F)CC2)cc1` [Example 29b] the pIC50 [2] was < 5.00.
For `C[C@](C(=O)NC1CCOCC1)(c1cncnc1)N(C(=O)[C@H](F)Cl)c1ccc(OC(F)(F)C(F)(F)F)cc1` [Example 32a], the pIC50 [1] was > 7.00.
`C[C@@](C(=O)NC1CCOCC1)(c1cncnc1)N(C(=O)[C@H](F)Cl)c1ccc(OC(F)(F)C(F)(F)F)cc1` [Example 32b] was tested, and the pIC50 [2] was 5.00 to 6.00.
In the case of `C[C@@](C(=O)NC1CCC(F)(F)CC1)(c1cncnc1)N(C(=O)[C@H](F)Cl)c1ccc(SC(F)(F)F)cc1` [Example 33b], the pIC50 [2] was 6.00 to 7.00.
With `C[C@](C(=O)NC1CCOCC1)(c1cncnc1)N(C(=O)[C@H](F)Cl)c1ccc(SC(F)(F)F)cc1` [Example 34a] the pIC50 [2] was > 7.00.
For `C[C@@](C(=O)NC1CCOCC1)(c1cncnc1)N(C(=O)[C@H](F)Cl)c1ccc(SC(F)(F)F)cc1` [Example 34b], the pIC50 [2] was < 5.00.
`C[C@](C(=O)NCCc1cccc(F)c1)(c1cncnc1)N(C(=O)[C@H](F)Cl)c1ccc(OC(F)(F)F)cc1` [Example 36a] was tested, and the pIC50 [2] was > 7.00.
With `C[C@@](C(=O)NCCc1cccc(F)c1)(c1cncnc1)N(C(=O)[C@H](F)Cl)c1ccc(OC(F)(F)F)cc1` [Example 36b] the pIC50 [2] was < 5.00.
`CC1(C)COCC[C@H]1NC(=O)[C@@](C)(c1cncnc1)N(C(=O)[C@H](F)Cl)c1ccc(OC(F)(F)F)cc1` [Example 76a] was tested, and the pIC50 [2] was > 7.00.
Compound `CC1(C)COCC[C@@H]1NC(=O)[C@@](C)(c1cncnc1)N(C(=O)[C@H](F)Cl)c1ccc(OC(F)(F)F)cc1` [Example 76b] has a pIC50 [2] of 6.00 to 7.00.
For `CC1(C)C[C@@H](NC(=O)[C@@](C)(c2cncnc2)N(C(=O)[C@H](F)Cl)c2ccc(OC(F)(F)F)cc2)CCO1` [Example 77b], the pIC50 [2] was > 7.00.
`C[C@](C(=O)NC1CCC(F)(F)CC1)(c1cncnc1)N(C(=O)[C@H](F)Cl)c1ccc(OC(F)(F)C(F)(F)F)cc1` [Example 90a] was tested, and the pIC50 [2] was > 7.00.
Compound `C[C@@](C(=O)NC1CCC(F)(F)CC1)(c1cncnc1)N(C(=O)[C@H](F)Cl)c1ccc(OC(F)(F)C(F)(F)F)cc1` [Example 90b] has a pIC50 [2] of 6.00 to 7.00.
With `C[C@](C(=O)NC1CCC(F)(F)CC1)(c1cncnc1)N(C(=O)[C@H](F)Cl)c1ccc(OC(F)(F)Cl)cc1` [Example 92a] the pIC50 [2] was > 7.00.
`C[C@@](C(=O)NC1CCC(F)(F)CC1)(c1cncnc1)N(C(=O)[C@H](F)Cl)c1ccc(OC(F)(F)Cl)cc1` [Example 92b] gave a pIC50 [2] of 6.00 to 7.00.
With `C[C@](C(=O)NC1CCC(F)(F)CC1)(c1cncc(F)c1)N(C(=O)[C@H](F)Cl)c1ccc(SC(F)(F)F)cc1` [Example 95a] the pIC50 [2] was > 7.00.
In the case of `C[C@@](C(=O)NC1CCC(F)(F)CC1)(c1cncc(F)c1)N(C(=O)[C@H](F)Cl)c1ccc(SC(F)(F)F)cc1` [Example 95b], the pIC50 [2] was 5.00 to 6.00.
With `C[C@](C(=O)NC1CCOCC1)(c1cncc(F)c1)N(C(=O)[C@H](F)Cl)c1ccc(S(F)(F)(F)(F)F)cc1` [Example 97a] the pIC50 [2] was > 7.00.
In the case of `C[C@@](C(=O)NC1CCOCC1)(c1cncc(F)c1)N(C(=O)[C@H](F)Cl)c1ccc(S(F)(F)(F)(F)F)cc1` [Example 97b], the pIC50 [2] was < 5.00.
With `C[C@](C(=O)NC1CCOCC1)(c1cncc(F)c1)N(C(=O)[C@H](F)Cl)c1ccc(OC(F)(F)Cl)cc1` [Example 98a] the pIC50 [2] was > 7.00.
In the case of `C[C@@](C(=O)NC1CCOCC1)(c1cncc(F)c1)N(C(=O)[C@H](F)Cl)c1ccc(OC(F)(F)Cl)cc1` [Example 98b], the pIC50 [2] was 5.00 to 6.00.
In the case of `C[C@](C(=O)NC1CCC(F)(F)CC1)(c1cncc(F)c1)N(C(=O)[C@H](F)Cl)c1ccc(OC(F)(F)Cl)cc1` [Example 99a], the pIC50 [2] was > 7.00.
`C[C@@](C(=O)NC1CCC(F)(F)CC1)(c1cncc(F)c1)N(C(=O)[C@H](F)Cl)c1ccc(OC(F)(F)Cl)cc1` [Example 99b] gave a pIC50 [2] of 5.00 to 6.00.
With `C[C@](C(=O)NC1CCC(F)(F)CC1)(c1cncnc1)N(C(=O)[C@H](F)Cl)c1ccc(-c2nccs2)cc1` [Example 100a] the pIC50 [2] was > 7.00.
With `C[C@@](C(=O)NC1CCC(F)(F)CC1)(c1cncnc1)N(C(=O)[C@H](F)Cl)c1ccc(-c2nccs2)cc1` [Example 100b] the pIC50 [2] was 6.00 to 7.00.
With `C[C@](C(=O)NC1CCOCC1)(c1cncnc1)N(C(=O)[C@H](F)Cl)c1ccc(-c2nccs2)cc1` [Example 101a] the pIC50 [2] was > 7.00.
With `C[C@](C(=O)NC1CCC(F)(F)CC1)(c1cncc(F)c1)N(C(=O)[C@H](F)Cl)c1ccc(-c2nccs2)cc1` [Example 102a] the pIC50 [2] was > 7.00.
`C[C@@](C(=O)NC1CCC(F)(F)CC1)(c1cncc(F)c1)N(C(=O)[C@H](F)Cl)c1ccc(-c2nccs2)cc1` [Example 102b] was tested, and the pIC50 [2] was 6.00 to 7.00.
With `C[C@](C(=O)NC1CCOCC1)(c1cncc(F)c1)N(C(=O)[C@H](F)Cl)c1ccc(-c2nccs2)cc1` [Example 103a] the pIC50 [2] was > 7.00.
`C[C@@](C(=O)NC1CCOCC1)(c1cncc(F)c1)N(C(=O)[C@H](F)Cl)c1ccc(-c2nccs2)cc1` [Example 103b] was tested, and the pIC50 [2] was < 5.00.
In the case of `C[C@](C(=O)NC1CCC(F)(F)CC1)(c1cccnc1)N(C(=O)[C@H](F)Cl)c1ccc(SC(F)(F)F)cc1` [Example 104a], the pIC50 [2] was > 7.00.
Work on `C[C@@](C(=O)NC1CCC(F)(F)CC1)(c1cccnc1)N(C(=O)[C@H](F)Cl)c1ccc(SC(F)(F)F)cc1` [Example 104b] yielded a pIC50 [2] of 5.00 to 6.00.
`C[C@](C(=O)NC1CCOCC1)(c1cccnc1)N(C(=O)[C@H](F)Cl)c1ccc(SC(F)(F)F)cc1` [Example 105a] was tested, and the pIC50 [2] was > 7.00.
For `C[C@@](C(=O)NC1CCOCC1)(c1cccnc1)N(C(=O)[C@H](F)Cl)c1ccc(SC(F)(F)F)cc1` [Example 105b], the pIC50 [2] was < 5.00.
In the case of `C[C@](C(=O)NC1CCC2(CC1)COC2)(c1cncnc1)N(C(=O)[C@H](F)Cl)c1ccc(OC(F)(F)F)cc1` [Example 107a], the pIC50 [2] was > 7.00.
Compound `C[C@](C(=O)NC1CCOCC1)(c1cncnc1)N(C(=O)[C@H](F)Cl)c1ccc(C(F)(F)C(F)(F)F)cc1` [Example 108a] has a pIC50 [2] of 6.00 to 7.00.
For `C[C@@](C(=O)NC1CCOCC1)(c1cncnc1)N(C(=O)[C@H](F)Cl)c1ccc(C(F)(F)C(F)(F)F)cc1` [Example 108b], the pIC50 [2] was < 5.00.
In the case of `C[C@](C(=O)N[C@@H]1CC[C@H](NC(=O)C(F)(F)F)C1)(c1cncc(F)c1)N(C(=O)[C@H](F)Cl)c1ccc(OC(F)(F)F)cc1` [Example 109a], the pIC50 [1] was > 7.00.
With `C[C@@](C(=O)N[C@@H]1CC[C@H](NC(=O)C(F)(F)F)C1)(c1cncc(F)c1)N(C(=O)[C@H](F)Cl)c1ccc(OC(F)(F)F)cc1` [Example 109b] the pIC50 [1] was 5.00 to 6.00.
`C[C@](C(=O)Nc1ccc(Cl)cc1F)(c1cncnc1)N(C(=O)[C@H](F)Cl)c1ccc(OC(F)(F)F)cc1` [Example 110a] was tested, and the pIC50 [2] was > 7.00.
For `C[C@@](C(=O)Nc1ccc(Cl)cc1F)(c1cncnc1)N(C(=O)[C@H](F)Cl)c1ccc(OC(F)(F)F)cc1` [Example 110b], the pIC50 [2] was 5.00 to 6.00.
For `C[C@](C(=O)NC1CCOCC1)(c1cccnc1)N(C(=O)[C@H](F)Cl)c1ccc(OC(F)(F)Cl)cc1` [Example 111a], the pIC50 [2] was > 7.00.
`C[C@@](C(=O)NC1CCOCC1)(c1cccnc1)N(C(=O)[C@H](F)Cl)c1ccc(OC(F)(F)Cl)cc1` [Example 111b] was tested, and the pIC50 [2] was < 5.00.
`C[C@](C(=O)NC1CCC(F)(F)CC1)(c1cncnc1)N(C(=O)[C@H](F)Cl)c1cccc(OC(F)(F)F)c1` [Example 112a] gave a pIC50 [2] of 6.00 to 7.00.
For `C[C@@](C(=O)NC1CCC(F)(F)CC1)(c1cncnc1)N(C(=O)[C@H](F)Cl)c1cccc(OC(F)(F)F)c1` [Example 112b], the pIC50 [2] was < 5.00.
